Assay results reported in patent US12698258B2, “Cystine cationic lipids” (Translate Bio, Inc., priority 2019, dated 2026).

Test system: hEPO protein expression
Assay: In vivo expression of hEPO after IM injection of lipid nanoparticle formulations with hEPO mRNA
Set-up: species or system BALB/c mice
Conditions: lipid nanoparticles comprising the compound and hEPO mRNA; single intramuscular injection, 0.1 ug; hEPO in sera by ELISA; 24 hours after administration
Description: In embodiments, cationic lipids described herein can be used in the preparation of lipid nanoparticles according to methods known in the art. For example, suitable methods include methods described in international Publication No. WO 2018/089801, which is hereby incorporated by reference in its entirety.
Lipid nanoparticle formulations comprising human erythropoietin (hEPO) mRNA, Cationic Lipid, DMG-PEG2000, Cholesterol and DOPE were administered intramuscularly to study mRNA delivery and resultant hEPO expression. Male BALB/c mice at 6-8 weeks old are given a single injection of the LNP formulations into the gastrocnemius muscle at a dosage level of 0.1 ug. Blood samples were collected at 6 and 24 hours post-dose. hEPO protein expression levels were measured in the sera samples by ELISA and presented in FIG. 1.

| Structure (SMILES) | in vivo protein production resulting from the delivery of mRNA (FIG. 1) |
| --- | --- |
| CCCCCCCC(C)COC(=O)CCN(CCC(=O)OCCCCCCCC(C)C)[C@@H](CSSC[C@@H](C(=O)OC(C)CN(CCCN(C)C)CCCN(C)C)N(CCC(=O)OCCCCCCCC(C)C)CCC(=O)OCC(C)CCCCCCC)C(=O)OC(C)CN(CCCN(C)C)CCCN(C)C (some centres unmarked) [Compound 3] | high levels of in vivo protein production |
| CCCCCCCC(C)COC(=O)CCN(CCC(=O)OCCCCCCCC(C)C)[C@@H](CSSC[C@@H](C(=O)OCCOCCOCCOC)N(CCC(=O)OCCCCCCCC(C)C)CCC(=O)OCC(C)CCCCCCC)C(=O)OCCOCCOCCOC (some centres unmarked) [Compound 4] | high levels of in vivo protein production |
